Results on 6 compounds are retold here after patent US20200268864A1, “CANCER VACCINE COMPOSITIONS AND METHODS FOR USING SAME TO TREAT CANCER” (Dana-Farber Cancer Institute, Inc., priority 2017, published 2020).

Entries after “also recorded” stand apart in the source; their conditions may differ. Residues, ends and D or L forms follow the SMILES beside them. *: point of attachment. Cbz = O=C(OCc1ccccc1)*; CH2F = FC*

For test [1], the system named is STING pathway in BMDCs co-cultured with ID8 cells. The test can be described thus: Co-culture of BMDCs with drug-treated WT or Brca1-null ID8 cells. Particulars: co-cultured with both Brca1-deficient and Brca1 proficient ID8 cells. Type of test: cell-based, mouse. As for the experimental part: Brca-1 deficient ID8 cells were generated using a CRISPR double nickase plasmid. ID8 cells cultured in a 6-well plate were transfected with 2 μg/well of BRCA1 double nickase plasmid (sc419362-NIC, Santa Cruz Biotechnology) or control double nickase plasmid (SC-437281, Santa Cruz Biotechnology) using lipofectamine 3000 (Invitrogen). 48 hrs post-transfection, cells were passaged onto a 10 cm plate. After 24 h, puromycin (3 μg/mL) was added to the culture for selection. Puromycin resistant cells were selected and expanded. Due to a lack of a reliable mouse BRCA1 antibody for Western blot, cells were analyzed by DNA sequencing to confirm the disruption of functional Brca1 allele. To generate ID8 tumors, cultured ID8 cells were harvested and resuspended in serum free DMEM. Cells were then mixed with Matrigel (Corning). A total volume of 0.1 ml containing 5×10^6 ID8 cells and 40% Matrigel were injected subcutaneously into the flank of C57BL/6J mice.
Bone marrow cells were isolated from FVB/NJ mice and cultured in RPMI-1640 containing 10% FBS and 20 ng/ml GM-CSF. BMDCs (bone marrow derived dendritic cells) were harvested for in vitro co-culture assay on day 7 to day 10. About 3×10^5 PBM or PPM tumor cells were cultured in a 6-well plate for 24 hr. and then treated with DMSO or olaparib. […]

Test [2] concerns Brca1-proficient and Brca1-deficient tumor cells. The test can be described thus: Measurement of IC50 value in tumor cells (MTS, 72 h). It is filed as cell-based. Particulars: three pairs of models; for gemcitabine except PPM and PBM cells. As for the experimental part: Tumor cells were seeded in 96-well plates at a density of 1000-3000/well and allowed to adhere overnight. Cells were then exposed to appropriate concentrations of therapeutic agents (or vehicle control) with continuous exposure for 72 h. Growth inhibition was measured by CellTiter Aqueous MTS reagent from Promega by comparing the absorbance at 490 nm of drug-treated cells to that of untreated controls set at 100%. 1C50 values were calculated using non-linear regression model (logarithmic inhibitor vs. normalized response-variable slope) in Graphpad Prism 7.

In test [3] the test system is STING pathway in BMDCs co-cultured with PBM cells. The test is described as follows: Co-culture of BMDCs with olaparib-treated PBM tumor cells. It is filed as cell-based, mouse. As for the experimental part: (§1) Blood was obtained by retro-orbital sampling at intermediate time points or experimental end points. Blood cells and plasma/sera were separated by centrifugation at 1,500×g for 5 min. at 4° C. Plasmaisera were sent out to Eve Technologies for cytokine array analysis (Chemokine Array 31-Plex and Mouse Procarta IFN 2-plex Featured Assay). Plasma/sera were applied to ELISA according to manufacturer's instructions. For in vitro experiments, cell culture supernatants were obtained by centrifugation at 1,500×g for 5 min. at 4° C. to remove all debris and cells, and were then subjected to ELISA analysis. IFN-β was detected using the LEGEND MAX™ Mouse IFN-β ELISA Kit (BioLegend).
Bone marrow cells were isolated from FVB/NJ mice and cultured in RPMI-1640 containing 10% FBS and 20 ng/ml GM-CSF. BMDCs (bone marrow derived dendritic cells) were harvested for in vitro co-culture assay on day 7 to day 10. About 3×10^5 PBM or PPM tumor cells were cultured in a 6-well plate for 24 hr. and then treated with DMSO or olaparib. After 24 hr incubation with DMSO, olaparib, or olaparib in combination with other drugs (cell cycle inhibitor or apoptosis inhibitor), drugs were removed and tumor cells were washed twice with PBS. BMDCs were added and co-cultured with PBM or PPM cells at a ratio of 1:1 in 1.5 ml culture media in the presence of GM-CSF (20 ng/ml) and lipofectamine (2 μl) for 24 hr. Co-cultured cells were harvested for flow cytometry analysis and floating cells (percentage of BMDCs is about 90%), or RNA analysis. Cell culture supernatants were collected for detection of IFN-β with the ELISA kit. BMDCs generated from C57BL/6J mice were applied for the coculture of BMDCs with ID8 tumor cells. Human dendritic cells purchased from Lonza were used for the coculture of human DCs with DMSO or olaparib-treated human ovarian cancer cells ([…] and UWB1.289+BRCA1).
(§2) About 50 to 100 mg of tumor samples were homogenized in 1 ml of TRIzol™ Reagent supplied with 200 μl of stainless steel beads and 0.2 ml of chloroform was added to the samples. Samples were vortexed vigorously for 15 seconds and then incubated at room temperature for 2 to 3 minutes. After centrifugation at 12,000×g for 15 minutes at 4° C., upper aqueous phase of the samples was carefully removed to a new tube and the total RNA was purified using an RNeasy® Mini Kit (Qiagen) according to manufactory's instruction. For the in vitro cultured cell samples, total RNA was isolated using an RNeasy® Mini Kit. The qPCR was performed on an Applied Biosystems 7300 machine after the total RNA was reverse transcribed to cDNA using the SuperScript® III First-Strand Synthesis System (Invitrogen). Primers used for qPCR were as follows: […]

The test system of test [4] is STING signaling in BMDCs. The test is described as follows: BMDCs stimulated with STING agonist DMXAA. Type of test: cell-based, mouse. As for the experimental part: as §1, §2
In test [5] the test system is PBM tumors (Trp53−/−; Brca1−/−; c-Myc). The test is described as follows: Orthotopic PBM tumor allograft growth and survival (bioluminescence). It is filed as in vivo, mouse. To be noted: PBM tumors; agent given together with olaparib. As for the experimental part:
All animal experiments described in this study were performed according to the animal protocols approved by the DFCI Institutional Animal Care and Use Committee. Brca1^loxP/loxP [FVB/N] mice, bearing loxP sites in introns 4 and 13 of the Brca1 gene, and Trp53^loxP/loxP[FVB/N] mice bearing loxP in introns 2 and 10 of the p53 gene, were obtained from Dr. Jos Jonkers's laboratory (Netherlands Cancer Institute, Amsterdam, The Netherlands). These mice were intercrossed through multiple generations to create a colony of homozygous Trp53^loxP/loxP/Brca1^loxP/loxP double conditional knockout mice. Ovaries were harvested from 8-week-old female Trp53^loxP/loxP/Brca1^loxP/loxP mice. The ovaries were washed twice with phosphate-buffered and incubated in DMEM/F12 (Ham's) medium containing collagenase and dispase (stem cell technologies) for 40 min at 37° C. The epithelial cells were pelleted by centrifugation at 800×g and cultured in DMEM/F12 (Life Technologies) supplemented with 4% (vol/vol) FBS, 1% penicillin/streptomycin, 10 ng/mL EGF, 5 μg/mL insulin, 5 Cpg/mL transferrin, and 5 ng/mL sodium selenite. Ovarian surface epithelial (OSE) cells were cultured for 48 hr and then introduced with Adeno-Cre (University of Iowa) and lentiviruses expressing C-Myc gene (Addgene #36980) or control GFP. After two days of infection in vitro, OSE cells are aggregated and implanted into recipient mice. About 5×10^5 OSE cells (Trp53^−/−; Brca1^−/−; c-Myc) were injected into the right ovarian bursal cavities of 6- to 7-week-old female nude mice. In each mouse, the left ovarian bursa was injected with GFP-expressing OSE cells (Trp53^−/−; Brca1^−/−; GFP). PBM (Trp53^−/−; Brca1^−/−; c-Myc) ovarian tumors developed within three to six months after implantation of the genetically engineered OSE cells. The primary ovarian tumors were digested and orthotopically transplanted to FVB/NJ mice. The PPM GEM model (Trp53^−/−; Pten^−/−; c-Myc) was developed with OSE cells isolated from homozygous Trp53^loxP/loxP/Pten^loxP/loxP(FVB/NJ) double conditional knockout mice using the same strategy for generation of the PBM GEM model described above. For histological analysis, tumor pieces were fixed in 10% Formalin overnight and transferred to 70% ethanol. Embedding, sectioning and H&E staining was performed by scientists at the Harvard rodent histopathology core facility. The histological characteristics of high grade ovarian tumor were confirmed by two independent pathologists at Harvard Medical School.
Single cells were obtained by digestion of primary ovarian tumors in collagenase buffer and then cultured in MOT media (DMEM/F12, 0.6% FBS, 10 ng/ml EGF, hydrocortisone 1 μg/ml, cholera toxin 1 ng/ml, 100 μg/ml penicillin-streptomycin, 5 μM Y27632). […] The endpoints were determined by tumor burden and ascites. […]

With `CC(=O)O[C@H]1C(=O)[C@@]2(C)[C@H]([C@H](OC(=O)c3ccccc3)[C@]3(O)C[C@H](OC(=O)[C@H](O)[C@@H](NC(=O)c4ccccc4)c4ccccc4)C(C)=C1C3(C)C)[C@]1(OC(C)=O)CO[C@@H]1C[C@@H]2O` [paclitaxel], the “phosphorylation of TBK1 and IRF3 in BMDCs” value in test [1] is given as “increased”. For the same compound, in test [2], the “IC50 values, Brca1-deficient lines in comparison to Brca1-proficient counterparts” value (“IC50 values, Brca1-deficient lines” below) is reported as “no substantial differences”.

In the case of `CC(NC(=O)C(NC(=O)OCc1ccccc1)C(C)C)C(=O)NC(CC(=O)O)C(=O)CF` (stereo not drawn) [zVAD] (Cbz-Val-Ala-Asp-CH2F; configuration not given here), the “effect of apoptosis inhibitor on activation of DCs co-cultured with olaparib-treated PBM cells” value in test [3] (zVAD 10 μM with olaparib 2.5 μM, 24 h pre-treatment) was “little effect”. Turning to `Cc1ccc2c(=O)c3cccc(CC(=O)O)c3oc2c1C` [DMXAA, 5,6-dimethylxanthenone-4-acetic acid], the “IFN-β production from BMDCs in culture” value in test [4] (DMXAA 5 μg/ml, 2 h) was “strong IFN-β production”. Also, in test [4] (Western blot), the “STING signaling in BMDCs” value is “activation of the STING signaling”. With `Cn1ncnc1[C@H]1c2n[nH]c(=O)c3cc(F)cc(c23)N[C@@H]1c1ccc(F)cc1` [talazoparib], in test [2], the “IC50 values, Brca1-deficient lines” value is given as “much more sensitive”. As to `Nc1ccn([C@@H]2O[C@H](CO)[C@@H](O)C2(F)F)c(=O)n1` [gemcitabine], the “IC50 values, Brca1-deficient lines” value in test [2] is listed as “no substantial differences”. As to `O=C(NCCCNc1nc(Nc2cccc(NC(=O)N3CCCC3)c2)ncc1I)c1cccs1` [BX795], in test [5], the “effect of added agent on olaparib-induced tumor inhibition / antitumor activity of olaparib” value is “blocked the anti-tumor activity of olaparib; also recorded: attenuated”. In test [3] (agent added to the co-culture), the “effect on olaparib-induced IFNβ/CXCL10 expression and STING activation in co-cultured DCs” value is recorded as “abrogated”; the “effect on olaparib-induced phosphorylation of TBK1 in CD11c dendritic cells” value is given as “reduced”. Moreover, the “effect on DMXAA-induced IFN-β production from BMDCs” value in test [4] (BX795 2 μM, 2 h) is “abolished”.
